9 compounds from patent US12017974B2, “Adamantanecarboxylic acid benzyl amide derivative compound and skin whitening composition comprising same” (AMOREPACIFIC CORPORATION, priority 2019, dated 2024) can be followed below.

This assay deals with B16F10 (malignant melanoma cells). The assay can be described thus: Effect of inhibiting melanin formation in melanocytes (Dooley method). Format: cell-based. Conditions: Mus musculus, B16-F10, 72 h; mice-derived B16F10 cells; treated continuously for 3 days; melanin dissolved in 1 N NaOH, absorbance at 405 nm; read-out: Inhibition of melanin formation IC50. The procedure:
Each of the amide derivative compounds according to Examples was determined in terms of the effect of inhibiting melanin formation in melanocytes by using the Dooley method. As a cell line, a mice-derived B16F10 (malignant melanoma cells) available from Korean Cell Line Bank was used. In addition, DMEM (Cat No. 11195), FBS (Cat No. 16000-044) and antibiotic-antifungal agent (Cat No. 15240-062) required for culturing cells were purchased from Invitrogen (GIBCO). The cell line was cultured at 37° C. under 5% CO2. The cultured B16F10 cells were stripped off with 0.05% trypsin-EDTA, the same number of cells (1×10^4 cells/well) was inoculated into a 48-well plate, and then the medium was exchanged with a medium containing 10 ppm of each Example continuously for 3 days from the next day. As a positive control, kojic acid and 5-adamantan-1-yl-N-(2,4-dihydroxybenzyl)-2,4-dimethoxybenzamide were used. After the fifth day, the cells were treated with 1 N NaOH to carry out reaction at 60° C. for 2 hours so that melanin contained in the cells might be dissolved, and then the amount of melanin was measured by determining the absorbance at 405 nm. Then, the concentration (IC50) of each Example required for reducing melanin formation by half in melanocytes was calculated.
With `O=C(NCc1ccc(O)cc1O)C12CC3CC(CC(C3)C1)C2` [Example 1, Adamantane-1-Carboxylic Acid 2,4-Dihydroxybenzylamide], the IC50 is 15000 nM.
In the case of `O=C(NCc1ccc(O)c(O)c1)C12CC3CC(CC(C3)C1)C2` [Example 2, Adamantane-1-Carboxylic Acid 3,4-Dihydroxybenzylamide], the 50% inhibitory concentration (IC50) came to 20 nM.
As for `O=c1cc(CO)occ1O` [Kojic acid, reference compound], the half-maximal inhibitory concentration (IC50) was determined as 500000 nM.
Take `O=C(NCc1ccc(O)cc1)C12CC3CC(CC(C3)C1)C2` [Example 5, Adamantane-1-Carboxylic Acid 4-Hydroxybenzylamide]: the half-inhibitory concentration (IC50) turned out to be 11100 nM.
For `O=C(NCc1cc(O)ccc1O)C12CC3CC(CC(C3)C1)C2` [Example 4, Adamantane-1-Carboxylic Acid 2,5-Dihydroxybenzylamide], the concentration for half-maximal inhibition (IC50) amounted to 1430 nM.
Turning to `O=C(NCc1cccc(O)c1)C12CC3CC(CC(C3)C1)C2` [Example 6, Adamantane-1-Carboxylic Acid 3-Hydroxybenzylamide], the IC50 amounted to 480 nM.
`COc1cc(OC)c(C23CC4CC(CC(C4)C2)C3)cc1C(=O)NCc1ccc(O)cc1O` [5-adamantan-1-yl-N-(2,4-dihydroxybenzyl)-2,4-dimethoxybenzamide, reference compound]: the half-inhibitory concentration (IC50) stood at 1100 nM.
Turning to `O=C(NCc1ccccc1O)C12CC3CC(CC(C3)C1)C2` [Example 7, Adamantane-1-Carboxylic Acid 2-Hydroxybenzylamide], the IC50 amounted to 2360 nM.
Turning to `O=C(NCc1cc(O)cc(O)c1)C12CC3CC(CC(C3)C1)C2` [Example 3, Adamantane-1-Carboxylic Acid 3,5-Dihydroxybenzylamide], the IC50 is 20600 nM.
